Reference: patent US20170150719A1, “FUNGICIDAL PYRAZOLES AND THEIR MIXTURES” (E I DU PONT DE NEMOURS AND COMPANY, priority 2010, published 2017)

Tests used:
[1] = system: Puccinia recondita f. sp. tritici; experiment: Test H: wheat leaf rust, preventive spray on wheat seedlings, visual disease rating; details: 100 = 100% disease control; for Test H rating (disease control) / Test H rating (% disease control): wheat leaf rust; for Test H rating (disease control): sprayed the day before inoculation; for Test H rating (disease control) / pest or weed control at 200 µg/mL: 0 = no disease control; for Test H rating (% disease control): preventive spray, rating without asterisk; for pest or weed control at 200 µg/mL: read-out: Test H rating (disease control), wheat leaf rust, sprayed the day before inoculation
[2] = system: Blumeria graminis f. sp. tritici; experiment: Test I: wheat powdery mildew, preventive spray on wheat seedlings, visual disease rating; details: 100 = 100% disease control; for Test I rating (disease control) / Test I rating (% disease control): wheat powdery mildew; for Test I rating (disease control) / pest or weed control at 200 µg/mL: 0 = no disease control relative to the controls; for Test I rating (% disease control): preventive spray, rating without asterisk; for pest or weed control at 200 µg/mL: Blumeria graminis, in Triticum aestivum, read-out: Test I rating (disease control), wheat powdery mildew
[3] = system: Botrytis cinerea; experiment: Test A: tomato Botrytis, preventive spray on tomato seedlings, visual disease rating; details: 100 = 100% disease control; for Test A rating (disease control) / Test A rating (% disease control): tomato Botrytis; for Test A rating (disease control) / pest or weed control at 200 µg/mL: 0 = no disease control relative to the controls; for Test A rating (% disease control): preventive spray, 0 = no control relative to controls, rating without asterisk; for pest or weed control at 200 µg/mL: Botrytis cinerea, in Solanum lycopersicum, read-out: Test A rating (disease control), tomato Botrytis
[4] = system: Puccinia recondita f. sp. tritici; experiment: Test G: wheat leaf rust, spray after inoculation (curative) on wheat seedlings, visual disease rating; type: in vivo; details: 100 = 100% disease control; for Test G rating (disease control) / pest or weed control at 200 µg/mL: sprayed after inoculation, 0 = no disease control; for Test G rating (% disease control): spray after inoculation, rating without asterisk
Text: (§1) A hyphen (-) indicates no test results.

[5] = system: Septoria nodorum; experiment: Test E: Septoria glume blotch, preventive spray on wheat seedlings, visual disease rating; details: 100 = 100% disease control; for Test E rating (disease control): Septoria glume blotch; for Test E rating (disease control) / pest or weed control at 200 µg/mL: 0 = no disease control relative to the controls; for Test E rating (% disease control): Septoria glume blotch on wheat, preventive spray, rating without asterisk; for pest or weed control at 200 µg/mL: Parastagonospora nodorum, in Triticum aestivum, read-out: Test E rating (disease control), Septoria glume blotch
[6] = system: Septoria tritici; experiment: Test F: wheat leaf blotch, preventive spray on wheat seedlings, visual disease rating; type: in vivo; details: 100 = 100% disease control; for Test F rating (disease control) / pest or weed control at 200 µg/mL: 0 = no disease control relative to the controls; for Test F rating (% disease control): preventive spray, rating without asterisk; for pest or weed control at 200 µg/mL: Zymoseptoria tritici
Text: as §1

[7] = system: Alternaria solani; experiment: Test B: tomato early blight, preventive spray on tomato seedlings, visual disease rating; details: for Test B rating (disease control) / Test B rating (% disease control): tomato early blight, 100 = 100% disease control; for Test B rating (disease control): 0 = no disease control relative to the controls; for Test B rating (% disease control): preventive spray, rating without asterisk; for pest or weed control at 200 µg/mL: Alternaria solani, in Solanum lycopersicum, read-out: Test B rating (disease control)

| SMILES | Test H rating (disease control) [1] | Test I rating (disease control) [2] | Test A rating (disease control) [3] | Test G rating (disease control) [4] | Test E rating (disease control) [5] | Test F rating (disease control) [6] | Test B rating (disease control) [7] | Test H rating (% disease control) [1] | Test I rating (% disease control) [2] | Test A rating (% disease control) [3] | Test G rating (% disease control) [4] | Test E rating (% disease control) [5] | Test F rating (% disease control) [6] | Test B rating (% disease control) [7] | other results |
| --- | --- | --- | --- | --- | --- | --- | --- | --- | --- | --- | --- | --- | --- | --- | --- |
| Cc1nn(C)c(Oc2ccc(C#N)cc2F)c1-c1ccc(Cl)cc1F [compound 119] | 91% | 99% | 99% | 0% | 94% | 100% | 94% | – | – | – | – | – | – | – | – |
| CCOc1ccc(-c2c(C)nn(C)c2Nc2c(F)cc(Cl)cc2F)c(Cl)c1 [compound 207] | – | – | – | – | – | – | – | 94% | 99% | 94% | 0% | 86% | 100% | 99% | – |
| Cc1nn(C)c(Nc2c(F)cc(F)cc2F)c1-c1ccc(F)cc1F [Compound 11, 4-(2,4-difluorophenyl)-1,3-dimethyl-N-(2,4,6-trifluorophenyl)-1H-pyrazol-5-amine] | – | – | – | – | – | – | – | – | – | – | – | – | – | – | pest or weed control at 200 µg/mL [1]: 100%; pest or weed control at 200 µg/mL [2]: 99%; pest or weed control at 200 µg/mL [3]: 100%; pest or weed control at 200 µg/mL [4]: 0%; pest or weed control at 200 µg/mL [5]: 90%; pest or weed control at 200 µg/mL [6]: 94%; pest or weed control at 200 µg/mL [7]: 99% |
| COc1cc(F)c(Nc2c(-c3c(F)cc(OC)cc3F)c(C)nn2C)c(F)c1 [compound 21] | 96% | 94% | 100% | 99% | 89% | 99% | 100% | – | – | – | – | – | – | – | – |
| COc1ccc(Nc2c(-c3c(F)cccc3F)c(C)nn2C)c(Cl)c1 [compound 60] | 97% | 99% | 99% | 18% | 20% | 100% | 97% | – | – | – | – | – | – | – | – |
| Cc1nn(C)c(Nc2ccc(Br)cc2Cl)c1-c1ccc(F)cc1F [compound 167] | 92% | 98% | 100% | 6% | 0% | 100% | 0% | – | – | – | – | – | – | – | – |
| Cc1nn(C)c(Oc2ccc(C#N)cc2F)c1-c1c(F)cccc1F [Compound 130, 4-[[4-(2,6-difluorophenyl)-1,3-dimethyl-1H-pyrazol-5-yl]oxy]-3-fluorobenzonitrile] | – | – | – | – | – | – | – | – | – | – | – | – | – | – | pest or weed control at 200 µg/mL [1]: 100%; pest or weed control at 200 µg/mL [2]: 100%; pest or weed control at 200 µg/mL [3]: 100%; pest or weed control at 200 µg/mL [4]: 0%; pest or weed control at 200 µg/mL [5]: 0%; pest or weed control at 200 µg/mL [6]: 100%; pest or weed control at 200 µg/mL [7]: 90% |
| Cc1nn(C)c(Nc2c(Cl)cc(Cl)cc2Cl)c1-c1ccc(F)cc1Cl [compound 170] | 98% | 79% | 65% | 79% | 0% | 100% | 0% | – | – | – | – | – | – | – | – |
| Cc1nn(C)c(Nc2c(Cl)cc(Cl)cc2I)c1-c1ccc(F)cc1Cl [compound 197] | – | – | – | – | – | – | – | 97% | 94% | 100% | 9% | 0% | 100% | 77% | – |
| CCOc1ccc(-c2c(C)nn(C)c2Nc2ccc(F)cc2F)c(Cl)c1 [compound 209] | – | – | – | – | – | – | – | 92% | 100% | 98% | 0% | 0% | 100% | 95% | – |
